The source of these data is US20100009906A1, “Anticancer Treatments” (PHARMA MAR, S.A., priority 2006, published 2010).

Each structure is given as a SMILES string. Like-named read-outs stand apart in the source and are kept apart here.

Series [1] in a line: Pharmacokinetics of trabectedin and docetaxel following coadministration in patients with advanced malignancies. Type of series: in vivo, human. Particulars: for CL / Vss / clearance / Vd: mean (SD); for Vd: read-out: Vss. The method, then:
FIG. 2 and FIG. 3. Pharmacokinetic parameters of trabectedin and docetaxel following coadministration in patients with advanced malignancies.
A phase I trial combining docetaxel and trabectedin was performed. The objective of this study was to determine the maximum tolerated dose (MTD) of trabectedin in combination with docetaxel (60 mg/m^2 or 75 mg/m^2) administered every 21 days. Additional objectives were to evaluate the safety profile of this combination of drugs and to evaluate the pharmacokinetics of trabectedin and docetaxel when given in combination. The maximum tolerated dose (MTD) relates to the highest dose at which less than one third of the subjects in a dose-level cohort experienced dose-limiting toxicity (DLT).
We designed a dose finding trial with a fixed docetaxel dose of 60 mg/m^2 or 75 mg/m^2 administered intravenously over one hour, followed by one of six trabectedin doses (0.4, 0.6, 0.75, 0.9, 1.1, and 1.3 mg/m^2) administered intravenously over 3 hours, with one hour of rest between the administration of docetaxel and ET-743. This treatment was repeated every 21 days. […] Restricted patients received ≦1 prior chemotherapy regimen whereas unrestricted patients had no limit. In addition, protocol amendment after dose level 2a allowed administration of primary prophylactic G-CSF.

Series [2] deals with human tumour xenografts (melanoma, ovarian and breast carcinoma). To be noted: athymic mice; cited from earlier work.
Series [3] has as its system patients with sarcoma, breast and ovarian carcinoma. Particulars: cited from earlier work.
[4] abbreviates: trabectedin 400 μg/m^2 (n = 6) coadministered with 60 mg/m^2 of docetaxel.
The mark [5] stands for this setting: trabectedin 600 μg/m^2 (n = 3) coadministered with 60 mg/m^2 of docetaxel.
[6] abbreviates: human, in vivo, intravenous, docetaxel 60 mg/m^2 coadministered with trabectedin 400 μg/m^2 (n = 6).
The mark [7] stands for this setting: human, in vivo, intravenous, docetaxel 60 mg/m^2 coadministered with trabectedin 600 μg/m^2 (n = 4).

The term clearance denotes the rate of elimination divided by the concentration.

As to `COc1cc2c(cc1O)CCN[C@]21CS[C@@H]2c3c(OC(C)=O)c(C)c4c(c3[C@H](COC1=O)N1[C@@H]2[C@H]2c3c(cc(C)c(OC)c3O)C[C@@H]([C@@H]1O)N2C)OCO4` [Trabectedin, Ecteinascidin 743], the CL in series [1] (setting [4]) is given as 127 (61) L/h; in series [1] (setting [5]) it was 101 (46) L/h. In addition, the Vss is listed as 1179 (1402) L in series [1] (setting [4]) and 2754 (1946) L in series [1] (setting [5]). Further, the “Terminal t1/2” value is listed as 11.4 (3.3-100) h in series [1] (trabectedin 400 μg/m^2 (n = 6) coadministered with 60 mg/m^2 of docetaxel, median (range)) and 37.5 (11.7-98.8) h in series [1] (trabectedin 600 μg/m^2 (n = 3) coadministered with 60 mg/m^2 of docetaxel, median (range)). Moreover, the “Anticancer activity against human tumour xenografts” value in series [2] is recorded as “potent anticancer activity”. Besides, the Responses in patients entry in series [3] is recorded as “Promising ET-743 responses”.
On to `CC(=O)O[C@@]12CO[C@@H]1C[C@H](O)[C@@]1(C)C(=O)[C@H](O)C3=C(C)[C@@H](OC(=O)[C@H](O)[C@@H](NC(=O)OC(C)(C)C)c4ccccc4)C[C@@](O)([C@@H](OC(=O)c4ccccc4)[C@H]21)C3(C)C` [Docetaxel, (2R,3S)-N-carboxy-3-phenylisoserine, N-tert-butyl ester, 13-ester with 5β-20-epoxy-1,2α,4,7β,10β, 13α-hexahydroxytax-11-en-9-one 4-acetate 2-benzoate, trihydrate], for which, in series [1] (docetaxel 60 mg/m^2 coadministered with trabectedin 400 μg/m^2 (n = 6), median (range)), the “Terminal t1/2” value is 19.9 (6.7-23) h. Besides, in series [1] (setting [6]), the clearance is 815 mL/min and the Vd was found to be 405 L. In addition, in series [1] (setting [7]), the clearance was 797 mL/min and the Vd came to 900 L. Besides, in series [1] (human, in vivo, intravenous, docetaxel 60 mg/m^2 coadministered with trabectedin 600 μg/m^2 (n = 4), median (range), read-out: Terminal t1/2 (converted)), the half-life was 38.2 h. Moreover, the “Impact of concomitant administration of trabectedin on the pharmacokinetics of docetaxel” value in series [1] (patients with advanced malignancies) is listed as “not adversely impacted”.
